Experiments:
[1] = system: 5/6 nephrectomy rat model; assay: Left-ventricular diastolic dysfunction under isoprenaline infusion in 5/6 nephrectomized rats; type: in vivo; settings: Group 3: SNX + 10 mg/kg body weight/day in drinking water, 4 weeks
Source text: (§1) B-3. Effects of Partial A1 Agonists on Renal and Cardiac Function in 5/6 Nephrectomized Rats (Example 1 for Chronic Kidney Disorder)
(§2) 5/6 nephrectomy in the rat, in which one kidney and the renal cortex of the second kidney are surgically removed (=5/6 of functional kidney tissue) is an established animal model for interstitial renal fibrosis and chronic renal insufficiency [C. Fleck et al., “Suitability of 5/6 nephrectomy (5/6NX) for the induction of interstitial renal fibrosis in rats Influence of sex, strain, and surgical procedure”, Exp. Tox. Pathology 2006, 57, 195-205]. The model is characterized by progressive proteinuria, disturbed tubular electrolyte transport, a reduced glomerular filtration rate, an increase in urinary output, interstitial fibrosis with reactively occurring lymphocyte infiltrates, glomerulosclerosis and tubular atrophy. The level of proteinuria is a specific index of the renal function prognosis: the higher the proteinuria, the greater is the functional and structural kidney injury and therefore progression of chronic to terminal renal insufficiency (uraemia). During monitoring of therapy, e.g. with the ACE inhibitor enalapril, the course of proteinuria provides information on the functional and structural response to the therapy and thus on the renal function prognosis. As a result of the renal insufficiency and accumulation of umemic toxins, in the animals there is secondary development of a umemic cardiomyopathy, depending on the severity associated with hypertension, increased heart rate, reduced parasympathetic tone, myocardial, left-ventricular hypertrophy and fibrosis, diastolic dysfunction and an increased prevalence of arrhythmias [Svilerova et al. 2010 Physiol Res 59: S81-S88).
(§3) Procedure: male Wistar:WU rats (210-250 g) from Charles River had the left kidney and the renal cortex of the right kidney removed (=SNX) in one session; sham-operated rats served as control group (=SOP). The following groups, each with 12 rats per group, were investigated:
(§4) Group 2 SNX+placebo (60 g glycerol+100 g water+969 g PEG-400)
(§5) Group 3 SNX+10 mg/kg body weight/day enalapril (reference therapy, in the drinking water)
(§6) Group 4 SNX+0.1 mg/kg body weight/day partial A1 agonist EXAMPLE 1, p.o. in placebo
(§7) Group 5 SNX+1.0 mg/kg body weight/day partial A1 agonist EXAMPLE 1, p.o. in placebo
(§8) Group 6 SNX+0.3 mg/kg body weight/day partial A1 agonist EXAMPLE 4, p.o. in placebo
(§9) Group 7 SNX+3.0 mg/kg body weight/day partial A1 agonist EXAMPLE 4, p.o. in placebo
(§10) Three weeks after 5/6 nephrectomy, the rats developed manifest proteinuria, from this time point the rats were treated for a further four weeks corresponding to the groups stated above. At the end of the protocol, the following samples were obtained/measurements were carried out: eight-hour urine collection with determination of the concentration of hFABP in the urine by ELISA (Rat/Mouse h-FABP ELISA, Hycultbiotech), as marker for end organ damage, invasive measurement of the isoprenaline-induced increase (cumulatively 12.5 ng-250 ng/kg isoprenaline, i.v.) in systolic and diastolic left ventricular function, and TaqMan analyses of renal injury markers in the renal cortex.

[2] = system: 5/6 nephrectomy rat model; assay: Functional and structural renal dysfunction in 5/6 nephrectomized rats; type: in vivo; settings: Group 3: SNX + 10 mg/kg body weight/day in drinking water, 4 weeks
Source text: as §1, §2, §3, §4, §5, §6, §7, §8, §9, §10

[3] = system: unilaterally nephrectomized SHR; assay: Functional and structural myocardial dysfunction in unilaterally nephrectomized spontaneously hypertensive rats; type: in vivo, rat; settings: Group 3: UNX + 10 mg/kg body weight/day in drinking water, 4 weeks
Source text: (§11) B-4. Effects of Partial A1 Agonists on Renal and Cardiac Function in Unilaterally Nephrectomized and Spontaneously Hypertensive Rats (Example 2 for Chronic Kidney Disorders)
(§12) Unilaterally nephrectomized, spontaneously hypertensive rats (SHR) are an established animal model for investigating the development and progression of hypertensive damage of the glomeruli in the remaining kidney [H. Kinuno et al., “Effects of uninephrectomy on renal structural properties in spontaneously hypertensive rats”, Clin and Exp Pharmacol and Physiol 2005, 32, 173-178]. […] Furthermore, renal excretion of substances usually eliminated in the urine, such as creatinine and urea, is reduced and the electrolyte metabolism is disturbed, the latter being associated with volume retention.
(§13) Procedure: male SHR rats (180-220 g) from Taconic had the left kidney removed in one session (=UNX). Normotensive Wistar Kyoto rats (WKY) from Taconic served as control. The following groups, each with 12 rats per group, were investigated:
(§14) Group 2 UNX+placebo (60 g glycerol+100 g water+969 g PEG-400)
(§15) Group 3 UNX+10 mg/kg body weight/day enalapril (reference therapy, in the drinking water)
(§16) Group 4 SNX+1.0 mg/kg body weight/day partial A1 EXAMPLE 1, p.o. in placebo
(§17) Group 5 SNX+3.0 mg/kg body weight/day partial A1 EXAMPLE 4, p.o. in placebo
(§18) Three weeks after unilateral nephrectomy, the SHRs developed manifest hypertensive damage of the glomeruli in the remaining kidney, from this time point on the rats were treated for a further four weeks corresponding to the groups given above. At the end of the protocol, the following samples were obtained/measurements were carried out: eight-hour urine collection, invasive measurement of systolic and diastolic left ventricular function, and TaqMan analyses of renal injury markers in the renal cortex.

[4] = system: unilaterally nephrectomized SHR; assay: Functional and structural renal dysfunction in unilaterally nephrectomized spontaneously hypertensive rats; type: in vivo, rat; settings: Group 3: UNX + 10 mg/kg body weight/day in drinking water, 4 weeks
Source text: as §11, §12, §13, §14, §15, §16, §17, §18

`CCOC(=O)[C@H](CCc1ccccc1)N[C@@H](C)C(=O)N1CCC[C@H]1C(=O)O` [enalapril, reference compound] was tested, and the “left-ventricular pressure decrease as a function of time” value (from here on “left-ventricular pressure decrease”) ([1]; isoprenaline 0 ng/kg body weight) was 6613 ± 226 mmHg/s, the “left-ventricular pressure decrease” value ([1]; isoprenaline 12.5 ng/kg body weight) was 7972 ± 280 mmHg/s and the “left-ventricular pressure decrease” value ([1]; isoprenaline 25 ng/kg body weight) was 8297 ± 285 mmHg/s. For the same compound, the “left-ventricular pressure decrease” value ([1]; isoprenaline 50 ng/kg body weight) was 8705 ± 227 mmHg/s, the “left-ventricular pressure decrease” value ([1]; isoprenaline 100 ng/kg body weight) was 9267 ± 177 mmHg/s and the “left-ventricular pressure decrease” value ([1]; isoprenaline 250 ng/kg body weight) was 9359 ± 202 mmHg/s. For the same compound, the P-urea [2] was 15 ± 1 mmol/L, the U-creatinine [2] was 1.6 ± 0.2 μmol/ml urine/kg BW/h and the U-protein [2] was 0.25 ± 0.04 μmol/ml urine/kg BW/h. It also gave a U-sodium [2] of 18 ± 3 μmol/ml urine/kg BW/h, a U-urea [2] of 198 ± 22 μmol/ml urine/kg BW/h and a Urine volume [2] of 2.8 ± 0.2 ml/kg BW/h. The “End organ injury marker concentration in the urine: hFABP” value ([2]; ELISA) was 377 ± 151 pg hFABP/ml urine/h, the “End organ injury marker concentration in the urine: hFABP per creatinine” value ([2]; ELISA) was 83 ± 33 pg hFABP/μmol creatinine and the “Kidney injury marker-1 [gene expression]” value ([2]; renal cortex) was 27 ± 17 rel. expression. For the same compound, the “Lipocalin-2 [gene expression]” value ([2]; renal cortex) was 400 ± 236 rel. expression, the “Osteopontin [gene expression]” value ([2]; renal cortex) was 6226 ± 4107 rel. expression and the Diastolic blood pressure [3] was 91 ± 5 mmHg. For the same compound, the Heart rate [3] was 353 ± 7 beats/min, the “Left ventricular hypertrophy (LVS/RV ratio, mg/mg)” value [3] was 3.7 ± 0.2 mg/mg and the Left-ventricular end-diastolic pressure [3] was 5.4 ± 0.6 mmHg. For the same compound, the Left-ventricular pressure [3] was 130 ± 5 mmHg, the “Pressure decrease over time” value [3] was −10130 ± 239 mmHg/s and the “Pressure increase over time” value [3] was 8114 ± 304 mmHg/s. For the same compound, the Systolic blood pressure [3] was 132 ± 4 mmHg, the P-creatinine [4] was 62 ± 1.6 mmol/L and the P-urea [4] was 9.3 ± 0.4 mmol/L. For the same compound, the U-creatinine [4] was 1.5 ± 0.3 μmol/ml urine/kg BW/h, the U-protein [4] was 0.43 ± 0.07 μmol/ml urine/kg BW/h and the U-sodium [4] was 30 ± 5 μmol/ml urine/kg BW/h. For the same compound, the U-urea [4] was 153 ± 27 μmol/ml urine/kg BW/h, the Urine volume [4] was 2.4 ± 0.2 ml/kg BW/h and the “CYR61 [gene expression]” value ([4]; renal cortex) was 460 ± 55 rel. expression. The “Lipocalin-2 [gene expression]” value ([4]; renal cortex) was 140 ± 23 rel. expression.

— patent US20160311812A1, “ADENOSINE A1 AGONISTS AS MEDICAMENTS FOR KIDNEY DISORDERS” (BAYER PHARMA AKTIENGESELLSCHAFT, priority 2013, published 2016)
